Results on 13 compounds are retold here after PubChem BioAssay (NCI).

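These data come from cells grown in 96-well plates and exposed to compound for 48 hours at five concentrations. GI50: concentration for 50% inhibition of growth. TGI is the concentration that stops growth completely.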

Test systems include HOP-62 NSCLC; SK-OV-3 ovarian; SF-268 CNS; MALME-3M melanoma; NCI-H522 lung; HCT-116 colon; HCC-2998 colon; SK-MEL-5 melanoma.
Common to all, as to test: NCI-60 cell line screen, 48 h

As for `COc1ccc(OC)c(/C=N/N=C(\N)NO)c1`, the TGI in the assay on HOP-62 NSCLC is above 100 µM; in the assay on SK-OV-3 ovarian, above 100 µM; in the assay with SF-268 CNS it was above 100 µM; with MALME-3M melanoma, above 100 µM; with NCI-H522 lung, 35 µM; in the assay with HCT-116 colon, above 100 µM.

Take `CC(=O)[CH-]C(=O)c1ccccc1.CC(=O)[CH-]C(=O)c1ccccc1.O=S(=O)([O-])c1cc([O-])c2c([O-])cc(S(=O)(=O)[O-])cc2c1.[Na+].[Zr+4]`: the GI50 in the assay with HCC-2998 colon is above 100 µM; with HOP-62 NSCLC, 76 µM; with SK-OV-3 ovarian it was above 100 µM; in the assay on SF-268 CNS, above 100 µM; in the assay with SK-MEL-5 melanoma, above 100 µM; in the assay on MALME-3M melanoma, 53.1 µM. Also, the GI50 in the assay with NCI-H522 lung and in the assay with HCT-116 colon was above 100 µM each time. The TGI in the assay with HCC-2998 colon, in the assay on HOP-62 NSCLC, in the assay on SK-OV-3 ovarian, with SF-268 CNS, in the assay with SK-MEL-5 melanoma and in the assay with MALME-3M melanoma was above 100 µM each time. Besides, the TGI in the assay on NCI-H522 lung and in the assay with HCT-116 colon was above 100 µM throughout.

For the compound `Cc1nc2c(o1)C(=Nc1ccccc1)c1nc(C)oc1C2=Nc1ccccc1`, the TGI came to 80.3 µM in the assay with HCC-2998 colon; 36.3 µM in the assay with HOP-62 NSCLC; 40.4 µM in the assay with SK-OV-3 ovarian; 47.9 µM with SF-268 CNS; 2.34 µM in the assay on SK-MEL-5 melanoma; 41.6 µM with MALME-3M melanoma. In addition, the TGI with NCI-H522 lung is 42.7 µM; in the assay on HCT-116 colon it was 37.6 µM.

Take `COC1OC2COC(C)(C)OC2C(OC(C)=O)C1NC(=O)N(CCCl)N=O` (centres undefined): the TGI with HCC-2998 colon, in the assay with HOP-62 NSCLC, in the assay with SK-OV-3 ovarian, in the assay on SF-268 CNS, in the assay on SK-MEL-5 melanoma and in the assay with MALME-3M melanoma was above 100 µM in each case. For the same compound, the TGI with NCI-H522 lung is 67.1 µM; in the assay with HCT-116 colon, above 100 µM.

As to `Cc1cc(=O)n(-c2cc3cccccc-3n2)[nH]1`, the TGI with HCC-2998 colon was 48.7 µM; with HOP-62 NSCLC it was above 100 µM; in the assay with SK-OV-3 ovarian, 47 µM; with SK-MEL-5 melanoma it was 5.32 µM; in the assay with MALME-3M melanoma, 9.84 µM; in the assay on NCI-H522 lung, 6.86 µM. In the assay on HCT-116 colon, this compound returned a TGI of 5.27 µM.

Consider `CC(=O)[C@H]1CCC2[C@@H]3CC=C4C[C@@H]([O-])CC[C@]4(C)C3CC[C@@]21C.CC(=O)[C@H]1CCC2[C@@H]3CC=C4C[C@@H]([O-])CC[C@]4(C)C3CC[C@@]21C.CC(=O)[CH-]C(=O)c1ccccc1.CC(=O)[CH-]C(=O)c1ccccc1.Cl.[Ti+4]` (some centres undefined), for which the GI50 is 33.2 µM with HCC-2998 colon; 24.6 µM with HOP-62 NSCLC; 26.6 µM in the assay with SK-OV-3 ovarian; 21.3 µM with SF-268 CNS; 18.3 µM in the assay on SK-MEL-5 melanoma; 16 µM in the assay with MALME-3M melanoma. Besides, the results for the GI50 with NCI-H522 lung and in the assay on HCT-116 colon were 20.3 µM and 25.7 µM, respectively. Also, the TGI is 85.3 µM in the assay with HCC-2998 colon; 67.6 µM in the assay with HOP-62 NSCLC; 77.4 µM in the assay on SK-OV-3 ovarian; 92.8 µM with SF-268 CNS; above 100 µM in the assay with SK-MEL-5 melanoma; 37.3 µM in the assay on MALME-3M melanoma. The TGI in the assay with NCI-H522 lung is 66.5 µM; with HCT-116 colon, above 100 µM.

In the case of `CN(/N=C/c1ccnc2ccccc12)c1c([N+](=O)[O-])cc([N+](=O)[O-])cc1[N+](=O)[O-]`, the TGI was above 100 µM in the assay with HCC-2998 colon; above 100 µM in the assay on HOP-62 NSCLC; above 100 µM in the assay on SK-OV-3 ovarian; above 100 µM with SF-268 CNS; above 100 µM with SK-MEL-5 melanoma; 99.1 µM in the assay on MALME-3M melanoma. In the assay on NCI-H522 lung, the TGI came out at 92.8 µM.

On to `O=C(/C=C\c1cccc2ccccc12)c1ccc(Cl)cc1Cl`, for which the TGI with HCC-2998 colon was 92 µM; in the assay with HOP-62 NSCLC, above 100 µM; with SK-OV-3 ovarian, above 100 µM; in the assay with SF-268 CNS, 51.9 µM; with SK-MEL-5 melanoma, above 100 µM; with MALME-3M melanoma, 65.6 µM. The TGI in the assay with NCI-H522 lung is 35.1 µM; in the assay on HCT-116 colon, 33.6 µM.

Turning to `Cc1cc(C)c(-c2noc(-c3ccc(Cl)cc3)c2C2=NCCCN2)c(C)c1`, the TGI was 43.6 µM in the assay with HCC-2998 colon; 85.8 µM in the assay with HOP-62 NSCLC; above 100 µM in the assay with SK-OV-3 ovarian; 49.6 µM in the assay on SF-268 CNS; 24.2 µM in the assay on SK-MEL-5 melanoma; 36.8 µM in the assay with MALME-3M melanoma. Also, the TGI is 71.3 µM in the assay on NCI-H522 lung and above 100 µM in the assay with HCT-116 colon.

`COC(=O)C1=CC2C=CC(C1C(=O)OC)C1C(C(=O)OC)=C(C(=O)OC)C(C(=O)OC)=C(C(=O)OC)C21OC` (centres undefined): the TGI in the assay with HCC-2998 colon, with HOP-62 NSCLC, with SK-OV-3 ovarian, with SF-268 CNS, in the assay on SK-MEL-5 melanoma and in the assay with MALME-3M melanoma was above 100 µM throughout. Further, the TGI in the assay with NCI-H522 lung and with HCT-116 colon was above 100 µM throughout.

For the compound `COc1cc(/C=N/N=C(\N)NO)c(Cl)cc1O`, the TGI with HCC-2998 colon, in the assay on SK-OV-3 ovarian, in the assay on SF-268 CNS, with SK-MEL-5 melanoma, with MALME-3M melanoma and with NCI-H522 lung was above 100 µM throughout. The compound also gave a TGI in the assay with HCT-116 colon above 100 µM.

As to `O=C1c2ccccc2C2CCC1c1ccccc12` (centres undefined), the TGI with HCC-2998 colon was above 100 µM; in the assay with HOP-62 NSCLC it was above 100 µM; in the assay on SK-OV-3 ovarian it was above 100 µM; in the assay with SF-268 CNS, above 100 µM; with SK-MEL-5 melanoma, 34.1 µM; in the assay with MALME-3M melanoma it was 51.8 µM. Also, the TGI with NCI-H522 lung stood at 70.6 µM; in the assay on HCT-116 colon, 46.4 µM.

For the compound `CN(/N=C\c1ccnc2ccccc12)c1ccc([N+](=O)[O-])cc1`, the TGI in the assay on HCC-2998 colon, with HOP-62 NSCLC, with SK-OV-3 ovarian, in the assay on SF-268 CNS, with SK-MEL-5 melanoma and in the assay with MALME-3M melanoma was above 100 µM in each case. Further, the TGI with HCT-116 colon was above 100 µM.
